How the values were obtained:
[1] = tested on: human fetal lung fibroblast (MRC-5); experiment: in vitro
Procedure: (§1) Toxicity in human fetal lung fibroblast (MRC-5) cell line and primary mouse macrophages (PMM) was assessed using a previously reported assay in 96-well microtiter plates. Tamoxifen and miltefosine were included as reference drugs (Table 10).
(§2) For MRC5SV2 or PMM cells, the assays were performed in 96-well microtiter plates, each well containing 10 µL of compound dilution and 190 µL of cell inoculum (3 × 10^4 cells/mL) as reported. Cell growth was compared to untreated controls (100% growth) and assay-media controls (0% growth). After three-day incubation, cell viability was assessed fluorometrically by adding resazurin [50 µL/well of a stock solution in phosphate buffer (50 µg/mL)], incubating for 4 h and measuring fluorescence (ex 550 nm, em 590 nm). The results are expressed as percentage reduction in cell growth as compared to untreated control wells. […] Tamoxifen was included as the reference drug.

[2] = tested on: adult ex vivo S. mansoni worms; experiment: Adult ex vivo Schistosoma worm killing assay; type: cell-based
Procedure: Adult ex vivo Schistosoma assay: Mice (Swiss-Webster) were infected with S. mansoni by percutaneous exposure for 1 h to cercariae (NMRI strain) obtained from infected Biomphalaria glabrata snails. This study was approved by the Institutional Animal Care and Use Committee of Rush University Medical Center (17-053; Department of Health and Human Services animal welfare assurance number A-3120-01). Adult worms were isolated from infected mice as described and cultured in RPMI medium +10% fetal calf serum (FCS), 10 mM glutamine, 100 IU/mL penicillin and 100 µg/mL streptomycin for 24 h before compound addition. Compounds were dissolved in DMSO and added at the indicated concentrations. The culture media was replaced every day and fresh compounds added. Control worms were treated with DMSO alone. Worms were cultured for 5 days. […] Assays were done in triplicate with about 10 worms in each well. This study was approved by the Institutional Animal Care and Use Committee of Rush University Medical Center (17-053; Department of Health and Human Services animal welfare assurance number A-3120-01).

[3] = tested on: TBL3 cells (BL3 infected with T. annulata); experiment: Proliferation test on Theileria annulata-infected cells (TBL3); type: cell-based, bovine / Theileria annulata; conditions: 0.5 μM
Procedure: (§3) Theileria annulata culture: The TBL3 cell line was derived by in vitro infection of the spontaneous bovine B-lymphosarcoma cell line BL3 with the Hissar stock of T. annulata. B cell characteristics of the lines have been described. The cells are maintained at 37 °C under 5% CO2, in RPMI medium supplemented with 10% FCS, 25 mM Hepes, 4 mM L-glutamine, 100 μg/mL of streptomycin, 100 IU/mL of penicillin and […] 2-mercapthoethanol.
(§4) Cells were cultured in 12-well plates at an initial density of 200,000 cells per well in duplicate for each condition. […] The cells were cultured in 12-well plates at an initial density of 200,000 cells per well and drug was added every 24 h. To be able to compare the results, a drug-free control was also performed. Cell counting was done at 24, 72 and 96 h using the trypan blue method.

[4] = tested on: primary mouse macrophages (PMM); experiment: in vitro
Procedure: as §1, §2

BL3 cells = experiment: Proliferation test on non-infected BL3 cells; type: cell-based, bovine; conditions: […] and 0.5 μM
Procedure: as §3, §4

Question: Which CC50 [1] does the source give for `CC(=O)OCC1OC([S][Au][PH]2(c3ccccc3)C(c3ccccn3)=CC=C2c2ccccn2)C(OC(C)=O)C(OC(C)=O)C1OC(C)=O` [GoPI-sugar, 1-thio-β-D-glucopyranose 2,3,4,6-tetraacetato-S-Au{1-phenyl-2,5-di(2-pyridyl)phosphole}] here?
Answer: 0.59 µM

Question: And the “Dead (%) Day 1” value ([2]; 1 μM)?
Answer: 0%

Question: What about the “Dead (%) Day 2” value ([2]; 1 μM) of the same compound?
Answer: 0%

Question: What about the “Dead (%) Day 3” value ([2]; 1 μM) of the same compound?
Answer: 0%

Question: What about the “Dead (%) Day 4” value ([2]; 1 μM) of the same compound?
Answer: 0%

Question: What about the “Dead (%) Day 5” value ([2]; 1 μM) of the same compound?
Answer: 0%

Question: What about the “Dead (%) Day 1” value ([2]; 5 μM) of the same compound?
Answer: 100%

Question: And the “Dead (%) Day 1” value ([2]; 10 μM)?
Answer: 100%

Question: And the “time at which the antiproliferative effect occurred” value ([3]; TBL3 cells)?
Answer: 24 h

Question: And the “number of TBL3 cells per well” value ([3]; first 24 h, initial density 200,000 cells per well)?
Answer: 200,000 cells per well

Question: And the CC50 [4]?
Answer: 8 µM

Question: What about the “proliferation of BL3 compared to untreated BL3 cells” value (BL3 cells) of the same compound?
Answer: dampened

— PMC7663263 (Molecules, 2020)
